Assay results taken from patent US20240270821A1, “GIP/GLP1/GCG TRI-RECEPTOR AGONISTS AND USES THEREOF” (priority 2023, published 2024).
pEC50: −log10 of the molar value. Like-named read-outs stand apart in the source and are kept apart here. Starred links: 1 amine or outer side, 2 acyl side, 3 side chain; linkers in the order of their positions; H or OH if unused. Non-standard residues stand in square brackets, D forms with d. Residues, ends and D or L forms follow the SMILES beside them. Groups on a side chain read outwards from the residue. No end group written: not given here. *: point of attachment. C20 diacid = O=C(O)CCCCCCCCCCCCCCCCCCC(=O)*; C18 diacid = O=C(O)CCCCCCCCCCCCCCCCC(=O)*; αMePhe(2-F) = C[C@](N)(Cc1ccccc1F)C(=O)O; γGlu = O=C(O)[C@H](CCC(=O)[*:2])N[*:1]; αMe4Pal = C[C@](N)(Cc1ccncc1)C(=O)O; αMeY = C[C@](N)(Cc1ccc(O)cc1)C(=O)O; 4Pal = N[C@@H](Cc1ccncc1)C(=O)O; αMeL = CC(C)C[C@](C)(N)C(=O)O; αMeS = C[C@](N)(CO)C(=O)O; Orn = NCCC[C@H](N)C(=O)O; AEEA = NCCOCCOCC(=O)O; Aib = CC(C)(N)C(=O)O

Columns and labels:
Type in all cases: cell-based
hGIPR [1] = biological target: T1, hGIPR (Homo sapiens, UniProt P48546); experiment: Functional cAMP activation in the presence of 0.1% casein (no HSA); conditions: read-out: Relative cAMP EC50, hGIPR;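 further: intracellular cAMP rise after 30 min at 37 °C read by HTRF against a standard curve, scaled between buffer alone (0%) and top control ligand concentration (100%), four-parameter fit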
T1 sequence (P48546 22-466): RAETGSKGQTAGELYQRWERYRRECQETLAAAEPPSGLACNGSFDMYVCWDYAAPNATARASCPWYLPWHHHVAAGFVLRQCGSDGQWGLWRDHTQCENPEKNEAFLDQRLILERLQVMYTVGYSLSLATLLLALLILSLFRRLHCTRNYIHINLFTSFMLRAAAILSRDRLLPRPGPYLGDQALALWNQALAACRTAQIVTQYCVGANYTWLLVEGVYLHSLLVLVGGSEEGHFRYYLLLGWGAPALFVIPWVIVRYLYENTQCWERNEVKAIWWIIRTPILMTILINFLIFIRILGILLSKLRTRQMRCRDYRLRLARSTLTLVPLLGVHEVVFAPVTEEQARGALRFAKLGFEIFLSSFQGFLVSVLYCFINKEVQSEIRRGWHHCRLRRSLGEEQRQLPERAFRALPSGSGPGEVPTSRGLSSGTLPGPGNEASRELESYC

hGIPR [2] = biological target: T1, hGIPR; experiment: Functional cAMP activity in the presence of 1% HSA; conditions: read-out: cAMP Rel EC50, hGIPR
hGLP-1R [3] = biological target: T2, hGLP-1R (Homo sapiens, UniProt P43220); experiment: Functional cAMP activity in the presence of 1% HSA; conditions: read-out: cAMP Rel EC50, hGLP-1R
T2 sequence (P43220 24-463): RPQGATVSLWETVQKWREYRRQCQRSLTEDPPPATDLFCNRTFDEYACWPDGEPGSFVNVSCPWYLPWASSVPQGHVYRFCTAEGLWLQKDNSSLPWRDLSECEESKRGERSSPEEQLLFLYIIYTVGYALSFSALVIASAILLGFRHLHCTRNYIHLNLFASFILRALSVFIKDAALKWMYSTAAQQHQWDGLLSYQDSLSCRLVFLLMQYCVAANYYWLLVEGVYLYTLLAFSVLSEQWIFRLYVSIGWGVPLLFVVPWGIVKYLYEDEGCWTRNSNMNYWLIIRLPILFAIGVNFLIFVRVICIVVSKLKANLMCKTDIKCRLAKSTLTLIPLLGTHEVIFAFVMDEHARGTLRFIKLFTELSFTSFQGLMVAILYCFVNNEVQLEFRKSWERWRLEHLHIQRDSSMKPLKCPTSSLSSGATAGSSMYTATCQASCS

hGLP-1R [4] = biological target: T2, hGLP-1R; experiment: Functional cAMP activation in the presence of 0.1% casein (no HSA); conditions: read-out: Relative cAMP EC50, hGLP-1R;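 further: intracellular cAMP rise after 30 min at 37 °C read by HTRF, normalized between buffer only (0%) and maximal control ligand (100%), four-parameter variable-slope fit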
human GcgR = human GcgR (Homo sapiens, UniProt P47871); experiment: Functional cAMP activity in the presence of 1% HSA; conditions: read-out: cAMP Rel EC50, hGcgR
Sequence of human GcgR (P47871 26-477): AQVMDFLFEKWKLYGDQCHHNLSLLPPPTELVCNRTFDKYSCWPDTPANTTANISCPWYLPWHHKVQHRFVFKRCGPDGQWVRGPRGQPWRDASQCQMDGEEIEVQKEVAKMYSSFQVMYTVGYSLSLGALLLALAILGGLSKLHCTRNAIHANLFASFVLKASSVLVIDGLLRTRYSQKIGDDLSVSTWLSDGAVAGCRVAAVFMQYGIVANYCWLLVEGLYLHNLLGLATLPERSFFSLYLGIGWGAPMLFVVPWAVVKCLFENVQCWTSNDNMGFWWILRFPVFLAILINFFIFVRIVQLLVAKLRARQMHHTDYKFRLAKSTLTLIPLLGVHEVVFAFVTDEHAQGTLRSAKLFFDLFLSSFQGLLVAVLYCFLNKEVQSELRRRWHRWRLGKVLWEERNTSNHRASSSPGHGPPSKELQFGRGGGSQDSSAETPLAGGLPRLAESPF

hGcgR = hGcgR (Homo sapiens, UniProt P47871); experiment: Functional cAMP activation in the presence of 0.1% casein (no HSA); conditions: read-out: Relative cAMP EC50, hGcgR;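 further: intracellular cAMP rise after 30 min at 37 °C, read by HTRF against a cAMP standard curve, scaled from buffer only (0%) to maximal control ligand response (100%)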
Sequence of hGcgR (P47871 26-477): as above

[5] = in the presence of 0.1% casein (no HSA), geometric mean of relative EC50
[6] = HEK-293 clonal cell line, 1% HSA, geometric mean of relative EC50
[7] = in the presence of 0.1% casein (no HSA), geometric mean

| pEC50 (hGIPR [1]; [5]) | pEC50 (hGIPR [2]; [6]) | pEC50 (hGLP-1R [3]; [6]) | pEC50 (hGLP-1R [4]; [5]) | pEC50 (human GcgR; [6]) | pEC50 (hGcgR; [5]) | Molecule | pEC50 (hGIPR [1]) | pEC50 (hGIPR [2]) | pEC50 (hGLP-1R [3]) | pEC50 (hGLP-1R [4]) | pEC50 (human GcgR) | pEC50 (hGcgR) | pEC50 (hGIPR [1]; [7]) | pEC50 (hGLP-1R [4]; [7]) | pEC50 (hGcgR; [7]) |
| --- | --- | --- | --- | --- | --- | --- | --- | --- | --- | --- | --- | --- | --- | --- | --- |
| 10.73 | 8.79 | 7.39 | 9.38 | 5.82 | 7.99 | H-Y[Aib]QGT[αMePhe(2-F)]TSD[4Pal]SI[αMeL]LDKK([γGlu-γGlu-C18 diacid])AQ[Aib]AFIEYLTEGGPSSGEPPPSGSEE-NH2 [Example 633] |  |  |  |  |  |  |  |  |  |
|  |  |  |  |  |  | Y[Aib]QGT[αMePhe(2-F)]TSD[4Pal][αMeS]I[αMeL]LD[Orn]K([Glu-γGlu-C18 diacid])AQ[Aib][Orn]FI[dE][αMeY]LSEGGPSSGEPPPSGTEE-NH2 [Example 564] | 9.75 | 7.97 | 7.00 | 8.88 | 6.18 | 7.99 |  |  |  |
|  |  |  |  |  |  | H-Y[Aib]QGTFTSD[4Pal]S[Orn][αMeL]LD[Orn]K([γGlu-γGlu-C18 diacid])AQ[αMe4Pal]AFIEYLIAGGPSSGEPPPSGTEE-NH2 [Example 985] |  | 7.62 | 6.66 |  | 6.43 |  | 9.47 | 8.53 | 8.27 |
|  |  |  |  |  |  | CC[C@H](C)[C@H](NC(=O)[C@H](Cc1ccccc1)NC(=O)[C@H](C)NC(=O)C(C)(C)NC(=O)[C@H](CCC(N)=O)NC(=O)[C@H](C)NC(=O)[C@H](CCCCNC(=O)CC[C@H](NC(=O)CC[C@H](NC(=O)CCCCCCCCCCCCCCCCC(=O)O)C(=O)O)C(=O)O)NC(=O)[C@H](CCCN)NC(=O)[C@H](CC(=O)O)NC(=O)[C@H](CC(C)C)NC(=O)[C@H](CC(C)C)NC(=O)[C@@H](NC(=O)[C@H](CO)NC(=O)[C@H](Cc1ccc(O)cc1)NC(=O)[C@H](CC(=O)O)NC(=O)[C@H](CO)NC(=O)[C@@H](NC(=O)[C@](C)(Cc1ccccc1F)NC(=O)[C@@H](NC(=O)CNC(=O)[C@H](CCC(N)=O)NC(=O)C(C)(C)NC(=O)[C@@H](N)Cc1ccc(O)cc1)[C@@H](C)O)[C@@H](C)O)[C@@H](C)CC)C(=O)N[C@@H](CCC(=O)O)C(=O)N[C@@H](Cc1ccc(O)cc1)C(=O)N[C@@H](CC(C)C)C(=O)N[C@@H](CCC(=O)O)C(=O)N[C@@H](CCC(=O)O)C(=O)NCC(=O)NCC(=O)N1CCC[C@H]1C(=O)N[C@@H](CO)C(=O)N[C@@H](CO)C(=O)NCC(=O)N[C@@H](C)C(=O)N1CCC[C@H]1C(=O)N1CCC[C@H]1C(=O)N1CCC[C@H]1C(=O)N[C@@H](CO)C(N)=O [Example 414] (H-Y[Aib]QGT[αMePhe(2-F)]TSDYSILLD[Orn]K([γGlu-γGlu-C18 diacid])AQ[Aib]AFIEYLEEGGPSSGAPPPS-NH2) | 10.52 | 7.83 | 7.48 | 9.75 | 6.31 | 8.34 |  |  |  |
|  |  |  |  |  |  | H-Y[Aib]QGTFTSDFS[Orn][αMeL]LDKK([AEEA-γGlu-C18 diacid])AQ[Aib]AFIEWLLEGGSSSGAPPPSGH-NH2 [Example 270] |  | 7.44 | 6.18 |  | 5.97 |  | 9.59 | 8.49 | 8.30 |
|  |  |  |  |  |  | CC[C@H](C)[C@H](NC(=O)[C@H](CC(C)C)NC(=O)[C@H](Cc1ccc(O)cc1)NC(=O)[C@@H](CCC(=O)O)NC(=O)[C@@H](NC(=O)[C@H](Cc1ccccc1)NC(=O)[C@H](CCCN)NC(=O)C(C)(C)NC(=O)[C@H](CCC(N)=O)NC(=O)[C@H](C)NC(=O)[C@H](CCCCNC(=O)CC[C@H](NC(=O)CC[C@H](NC(=O)CCCCCCCCCCCCCCCCC(=O)O)C(=O)O)C(=O)O)NC(=O)[C@H](CCCN)NC(=O)[C@H](CC(=O)O)NC(=O)[C@H](CC(C)C)NC(=O)[C@](C)(CC(C)C)NC(=O)[C@@H](NC(=O)[C@](C)(CO)NC(=O)[C@H](Cc1ccncc1)NC(=O)[C@H](CC(=O)O)NC(=O)[C@H](CO)NC(=O)[C@@H](NC(=O)[C@](C)(Cc1ccccc1F)NC(=O)[C@@H](NC(=O)CNC(=O)[C@H](CCC(N)=O)NC(=O)C(C)(C)NC(=O)[C@@H](N)Cc1ccc(O)cc1)[C@@H](C)O)[C@@H](C)O)[C@@H](C)CC)[C@@H](C)CC)C(=O)N[C@@H](CCC(=O)O)C(=O)NCC(=O)NCC(=O)N1CCC[C@H]1C(=O)N[C@@H](CO)C(=O)N[C@@H](CO)C(=O)NCC(=O)N[C@@H](CCC(=O)O)C(=O)N1CCC[C@H]1C(=O)N1CCC[C@H]1C(=O)N1CCC[C@H]1C(=O)N[C@@H](CCC(=O)O)C(N)=O [Example 448] (H-Y[Aib]QGT[αMePhe(2-F)]TSD[4Pal][αMeS]I[αMeL]LD[Orn]K([γGlu-γGlu-C18 diacid])AQ[Aib][Orn]FI[dE]YLIEGGPSSGEPPPE-NH2) | 10.77 | 8.87 | 7.71 | 9.47 | 6.52 | 8.34 |  |  |  |
|  |  |  |  |  |  | H-Y[Aib]QGTFTSDFSK[αMeL]LDKK([AEEA-γGlu-C20 diacid])AQ[Aib]AFIEYLLEGGPSSGAPPP[γGlu]GE-NH2 [Example 53] |  | 6.95 | 5.99 |  | 5.75 |  | 9.29 | 8.48 | 8.38 |
|  |  |  |  |  |  | H-Y[Aib]QGT[αMePhe(2-F)]TSD[4Pal][αMeS]I[αMeL]LD[Orn]K([AEEA-γGlu-C18 diacid])AQ[αMe4Pal]EFI[dE][αMeY]LVEGGPSSGAPPPTGE-NH2 [Example 1152] |  | 8.92 | 7.36 |  | 6.54 |  | 11.00 | 9.43 | 8.63 |
|  |  |  |  |  |  | CC[C@H](C)[C@H](NC(=O)[C@H](CC(C)C)NC(=O)[C@](C)(Cc1ccc(O)cc1)NC(=O)[C@@H](CCC(=O)O)NC(=O)[C@@H](NC(=O)[C@H](Cc1ccccc1)NC(=O)[C@H](CCC(=O)O)NC(=O)C(C)(C)NC(=O)[C@H](C)NC(=O)[C@H](C)NC(=O)[C@H](CCCCNC(=O)COCCOCCNC(=O)CC[C@H](NC(=O)CCCCCCCCCCCCCCCCC(=O)O)C(=O)O)NC(=O)[C@H](CCCN)NC(=O)[C@H](CC(=O)O)NC(=O)[C@H](CC(C)C)NC(=O)[C@](C)(CC(C)C)NC(=O)[C@@H](NC(=O)[C@](C)(CO)NC(=O)[C@H](Cc1ccncc1)NC(=O)[C@H](CC(=O)O)NC(=O)[C@H](CO)NC(=O)[C@@H](NC(=O)[C@](C)(Cc1ccccc1F)NC(=O)[C@@H](NC(=O)CNC(=O)[C@H](CCC(N)=O)NC(=O)C(C)(C)NC(=O)[C@@H](N)Cc1ccc(O)cc1)[C@@H](C)O)[C@@H](C)O)[C@@H](C)CC)[C@@H](C)CC)C(=O)N[C@@H](CCC(=O)O)C(=O)NCC(=O)NCC(=O)N1CCC[C@H]1C(=O)N[C@@H](CO)C(=O)N[C@@H](CO)C(=O)NCC(=O)N[C@@H](C)C(=O)N1CCC[C@H]1C(=O)N1CCC[C@H]1C(=O)N1CCC[C@H]1C(=O)N[C@@H](CO)C(=O)NCC(=O)N[C@@H](CO)C(=O)N[C@@H](CCC(=O)O)C(=O)N[C@@H](CCC(=O)O)C(N)=O [Example 704] | 10.89 | 8.92 | 7.47 | 9.54 | 6.62 | 8.73 |  |  |  |
|  |  |  |  |  |  | Y[Aib]QGTFTSD[4Pal]SQ[αMeL]LDKK([dE-γGlu-C18 diacid])AQ[αMe4Pal]AFIEYLIE[Aib]GPSSGAPPPSGSE-NH2 [Example 924] |  | 7.80 | 6.40 |  | 6.04 |  | 10.10 | 8.51 | 8.22 |
|  |  |  |  |  |  | H-Y[Aib]QGT[αMePhe(2-F)]TSD[4Pal]SILLDKK([γGlu-γGlu-C18 diacid])AQ[Aib]AFIEYLEEGGPSSGAPPPSGSGE-NH2 [Example 618] | 10.38 | 8.33 | 7.05 | 8.82 | 6.16 | 8.25 |  |  |  |
|  |  |  |  |  |  | H-Y[Aib]QGTFTSD[4Pal]S[Orn][αMeL]LD[Orn]K([γGlu-γGlu-C18 diacid])AQ[αMe4Pal]AFIEYLIE[Aib]GPSSGAPPPSGS-NH2 [Example 939] |  | 7.85 | 6.54 |  | 6.37 |  | 9.84 | 8.56 | 8.62 |
